Assay results published in US20110064713A1 (priority 2009, published 2011).

Test system: DU-145 cells
Format: cell-based, Human

C=C1[C@@H](C)[C@H]2[C@H](Cc3ccccc3)NC(=O)[C@]23[C@H](OC(C)=O)/C=C/[C@@](C)(O)C(=O)[C@@H](C)C/C=C/[C@H]3[C@@H]1O [Cytochalasin-D]
Relative Wound Density at 24 Hours, Mean: 3.3 ± 0.2
Relative Wound Density at 24 Hours, Percent Relative to Media: 4%
effect on cell migration: did not migrate
